Earlier results in US20250313559A1 (Bayer Aktiengesellschaft, priority 2024, published 2025).
“Also recorded” adds a separate entry of the source.

Columns and labels:
[1] = test system: patients with HF and LVEF 35%; details: EMPHASIS-HF; HFrEF; cited from earlier work
[2] = test system: patients with HF and LVEF 45%; details: TOPCAT; HFmrEF/HFpEF; cited from earlier work
[3] = test system: patients with HF and left ventricular ejection fraction (LVEF) 35%; details: RALES; HFrEF; cited from earlier work
[4] = test system: patients with HFpEF; details: TOPCAT, global trial; cited from earlier work

SMILES: COC(=O)[C@@H]1CC2=CC(=O)CC[C@]2(C)[C@@]23O[C@@H]2C[C@@]2(C)[C@@H](CC[C@@]24CCC(=O)O4)[C@H]13 [eplerenone]
- Risk of death and hospitalization [1]: decrease the risk of death and hospitalization

SMILES: CC(=O)S[C@@H]1CC2=CC(=O)CC[C@]2(C)[C@H]2CC[C@@]3(C)[C@@H](CC[C@@]34CCC(=O)O4)[C@H]12 [spironolactone]
- Primary endpoint (first heart failure hospitalization or cardiovascular death) [2]: did not reduce the primary endpoint; also recorded: did not improve the primary outcome
- Risk of death and hospitalization [3]: decrease the risk of death and hospitalization
- primary composite endpoint [4]: did not reduce the primary endpoint; also recorded: did not demonstrate benefit
